According to patent US6794412B1, “Treatment of thrombosis by combined use of a factor Xa inhibitor and aspirin” (Bristol-Myers Squibb Pharma Company, priority 1999, dated 2004):

Test system: rabbit model of arterial thrombosis
Test: Electrically induced carotid artery thrombosis in rabbits, carotid blood flow over 90 min
Type: in vivo
Protocol: Rabbits were anesthetized with ketamine (50 mg/kg i.m.) and xylazine (10 mg/kg i.m.) and then surgically prepared with arterial and venous catheters. An electromagnetic flow probe was placed on a segment of an isolated carotid artery to monitor blood flow. Thrombus formation was induced by electrical stimulation of the carotid artery for 3 min at 4 mA using an external stainless-steel bipolar electrode. Carotid blood flow was measured continuously over a 90-min period to monitor thrombus occlusion. Test agents were infused intravenously 1 hour prior to the electrical stimulation of the carotid artery and continuously during the 90-min period.

[1] = Factor Xa inhibitor alone 0.1 mg/kg/hr i.v. infusion

Structure (SMILES)	prevention of occlusion of the carotid artery [1]	further results
CC(=O)Oc1ccccc1C(=O)O [Aspirin]	–	prevention of occlusion of the carotid artery (aspirin alone 1 mg/kg/hr i.v. infusion from 1 hour before stimulation and during 90 min): did not prevent the occlusion of the artery
CS(=O)(=O)c1ccccc1-c1ccc(NC(=O)c2cc(C(F)(F)F)nn2-c2cccc(CN)c2)c(F)c1.O=C(O)C(F)(F)F [Compound (1)]	did not prevent the occlusion of the artery	–
NCc1cccc(-n2nc(C(F)(F)F)cc2C(=O)Nc2ccc(-c3ccccc3S(N)(=O)=O)cc2)c1.O=C(O)C(F)(F)F [Compound (3)]	did not prevent the occlusion of the artery	–
CS(=O)(=O)O.Cc1noc(C)c1S(=O)(=O)N[C@@H](CNC(=O)C[C@H]1CC(c2ccc(C(=N)N)cc2)=NO1)C(=O)O [Compound (4)]	–	prevention of occlusion of the carotid artery (Compound (4) alone 0.03 mg/kg/hr i.v.): did not prevent the occlusion of the artery
